# Measurements taken from ChEMBL document CHEMBL1255222, “Exploring the neuroleptic substituent in octoclothepin: potential ligands for positron emission tomography with subnanomolar affinity for α(1)-adrenoceptors” (J Med Chem, 2010).
# Tests used:
# [1] = Apparent permeability across human Caco-2 cells; assay type: ADME, cell-based
# [2] = physchem; details: octanol/water
Papp [1] [×10⁻⁶ cm/s],logD [2],SMILES
33,2.65,CC(=O)NCc1ccc2c(c1)C(N1CCN(C)CC1)Cc1ccccc1S2 (racemic)
12,3.06,Cn1nnc(-c2ccc3c(c2)c(C2CCN(CCN4CCNC4=O)CC2)cn3-c2ccc(F)cc2)n1
57,3.1,CC(C)C(=O)NCc1ccc2c(c1)C(N1CCN(C)CC1)Cc1ccccc1S2 (racemic)

# Further lines, the compound ahead of its results:
SMILES,Papp [1] [×10⁻⁶ cm/s],logD [2]
CCN1CCC[C@H]1CNC(=O)c1c(O)c(Cl)cc(Cl)c1OC [RACLOPRIDE],66,
CN1CCC(c2cn(-c3ccc(F)cc3)c3ccc(-c4cncnc4)cc23)CC1,13,1.9
